Test results reported in ChEMBL document CHEMBL1201862, “PubChem BioAssay data set” (2004).
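Test compounds were applied to cells in 96-well plates for 48 hours at 5 doses. At the GI50, growth is halved.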 Activity calls are given as the source filed them. Rule as the data show it: active = GI50 up to about 1.1 µM and inactive = higher.

What was measured:
Experiment in all cases: inhibition of tumour cell growth, NCI panel, 48 h
Hs-578T = tested on: Hs-578T
RPMI-8226 = tested on: RPMI-8226
DU-145 = tested on: DU-145
CAKI-1 = tested on: CAKI-1
CCRF-CEM = tested on: CCRF-CEM
NCI-H460 = tested on: NCI-H460
SN12C = tested on: SN12C
HCT-15 = tested on: HCT-15
A498 = tested on: A498
SF-295 = tested on: SF-295
COLO 205 = tested on: COLO 205
Malme-3M = tested on: Malme-3M
SF-539 = tested on: SF-539
786-0 = tested on: 786-0
A549 = tested on: A549
IGROV-1 = tested on: IGROV-1
U-251 = tested on: U-251
SW-620 = tested on: SW-620
NCI/ADR-RES = tested on: NCI/ADR-RES
SNB-19 = tested on: SNB-19
UACC-257 = tested on: UACC-257
RXF 393 = tested on: RXF 393
HOP-62 = tested on: HOP-62
HCT-116 = tested on: HCT-116
MOLT-4 = tested on: MOLT-4
TK-10 = tested on: TK-10
NCI-H23 = tested on: NCI-H23
ACHN = tested on: ACHN
MDA-MB-435 = tested on: MDA-MB-435
OVCAR-8 = tested on: OVCAR-8
UO-31 = tested on: UO-31
OVCAR-3 = tested on: OVCAR-3
SK-MEL-5 = tested on: SK-MEL-5
SK-MEL-2 = tested on: SK-MEL-2
UACC-62 = tested on: UACC-62
LOX IMVI = tested on: LOX IMVI
NCI-H522 = tested on: NCI-H522
MDA-N = tested on: MDA-N
SK-MEL-28 = tested on: SK-MEL-28
HCC 2998 = tested on: HCC 2998
NCI-H226 = tested on: NCI-H226
M14 = tested on: M14
T47D = tested on: T47D
SF-268 = tested on: SF-268
OVCAR-4 = tested on: OVCAR-4
OVCAR-5 = tested on: OVCAR-5
PC-3 = tested on: PC-3
SR = tested on: SR
SK-OV-3 = tested on: SK-OV-3
BT-549 = tested on: BT-549
HOP-92 = tested on: HOP-92
EKVX = tested on: EKVX
MCF7 = tested on: MCF7
SNB-75 = tested on: SNB-75
K562 = tested on: K562
KM12 = tested on: KM12
HL-60 = tested on: HL-60
HT-29 = tested on: HT-29

Measured: GI50

CCN(CC)CCC1(C(=O)OC)SCCc2ccc(C)cc21 (stereo not given)
inactive: Hs-578T > 100 µM | RPMI-8226 > 100 µM | DU-145 > 100 µM | CAKI-1 > 100 µM | CCRF-CEM > 100 µM | NCI-H460 > 100 µM | SN12C > 100 µM | A498 > 100 µM | SF-295 > 100 µM | COLO 205 > 100 µM | Malme-3M > 100 µM | SF-539 > 100 µM | 786-0 > 100 µM | A549 > 100 µM | IGROV-1 > 100 µM | U-251 > 100 µM | SW-620 > 100 µM | NCI/ADR-RES > 100 µM | SNB-19 > 100 µM | UACC-257 > 100 µM | RXF 393 > 100 µM | HOP-62 > 100 µM | HCT-116 > 100 µM | MOLT-4 > 100 µM | TK-10 > 100 µM | NCI-H23 > 100 µM | ACHN > 100 µM | MDA-MB-435 > 100 µM | OVCAR-8 > 100 µM | UO-31 > 100 µM | OVCAR-3 > 100 µM | SK-MEL-5 > 100 µM | SK-MEL-2 > 100 µM | UACC-62 > 100 µM | LOX IMVI > 100 µM | NCI-H522 > 100 µM | MDA-N > 100 µM | SK-MEL-28 > 100 µM | HCC 2998 > 100 µM | NCI-H226 > 100 µM | M14 > 100 µM | T47D > 100 µM | SF-268 > 100 µM | OVCAR-4 > 100 µM | OVCAR-5 > 100 µM | PC-3 > 100 µM | SR > 100 µM | SK-OV-3 > 100 µM | BT-549 > 100 µM | HOP-92 > 100 µM | EKVX > 100 µM | MCF7 > 100 µM | SNB-75 63.2 µM | K562 > 100 µM | KM12 > 100 µM
> 100 µM: HCT-15

COc1cc(O)c2c(=O)c(OC)c(-c3ccc(OC)c(OC)c3)oc2c1.[Zn+2]
inactive: Hs-578T 2.67 µM | RPMI-8226 57.9 µM | CAKI-1 11.2 µM | NCI-H460 17.1 µM | SN12C 61.2 µM | SF-539 20.8 µM | 786-0 10.4 µM | A549 53.2 µM | RXF 393 5.81 µM | TK-10 66.1 µM | HL-60 > 100 µM | NCI-H522 4.38 µM | MDA-N > 100 µM | NCI-H226 54.8 µM | SK-OV-3 5.12 µM | BT-549 17.8 µM | SNB-75 1.75 µM

O=c1cc2oc3ccc4ccccc4c3cc-2c(=O)[nH]1
inactive: Hs-578T 24.4 µM | RPMI-8226 2.96 µM | DU-145 13.6 µM | CAKI-1 15.3 µM | NCI-H460 22.9 µM | A498 16.1 µM | SF-295 20.7 µM | COLO 205 15.3 µM | Malme-3M 16.2 µM | SF-539 9.79 µM | 786-0 13.8 µM | A549 21 µM | IGROV-1 14.2 µM | U-251 10.2 µM | SW-620 1.87 µM | NCI/ADR-RES 17.5 µM | SNB-19 14 µM | UACC-257 16.4 µM | HOP-62 10.8 µM | HCT-116 17.1 µM | MOLT-4 2.25 µM | HT-29 16 µM | NCI-H23 1.42 µM | ACHN 17 µM | MDA-MB-435 11 µM | OVCAR-8 1.56 µM | UO-31 11 µM | OVCAR-3 11.4 µM | SK-MEL-5 15.5 µM | SK-MEL-2 17.3 µM | UACC-62 17.9 µM | LOX IMVI 7.71 µM | HL-60 1.51 µM | NCI-H522 9.12 µM | MDA-N 11.3 µM | SK-MEL-28 17.9 µM | HCC 2998 16.9 µM | M14 18.2 µM | SF-268 12.7 µM | OVCAR-4 22.3 µM | OVCAR-5 17.6 µM | PC-3 10.6 µM | SR 2.62 µM | SK-OV-3 20.3 µM | BT-549 1.34 µM | EKVX 18 µM | MCF7 19.1 µM | K562 19.8 µM | KM12 20 µM
7.55 µM: HCT-15
active: CCRF-CEM 1.07 µM

O=C(NCC(C(=O)OCc1ccccc1)C(=O)OCc1ccccc1)OCc1ccccc1
inactive: Hs-578T > 100 µM | RPMI-8226 > 100 µM | DU-145 > 100 µM | CAKI-1 > 100 µM | NCI-H460 94.6 µM | SN12C > 100 µM | SF-295 > 100 µM | COLO 205 > 100 µM | Malme-3M > 100 µM | SF-539 > 100 µM | 786-0 > 100 µM | A549 63.8 µM | IGROV-1 > 100 µM | U-251 85.7 µM | SW-620 > 100 µM | NCI/ADR-RES 42.6 µM | SNB-19 > 100 µM | UACC-257 > 100 µM | RXF 393 77.4 µM | HOP-62 > 100 µM | MOLT-4 19.2 µM | HT-29 > 100 µM | TK-10 > 100 µM | NCI-H23 59.3 µM | ACHN > 100 µM | MDA-MB-435 > 100 µM | OVCAR-8 > 100 µM | UO-31 47.9 µM | OVCAR-3 > 100 µM | SK-MEL-5 35.9 µM | SK-MEL-2 > 100 µM | UACC-62 > 100 µM | NCI-H522 72.6 µM | MDA-N > 100 µM | SK-MEL-28 > 100 µM | HCC 2998 > 100 µM | NCI-H226 50.4 µM | M14 > 100 µM | SF-268 > 100 µM | OVCAR-5 > 100 µM | PC-3 35.4 µM | SR 37.9 µM | SK-OV-3 > 100 µM | BT-549 38.8 µM | HOP-92 > 100 µM | EKVX 72.3 µM | MCF7 49.3 µM | SNB-75 > 100 µM | K562 60.1 µM | KM12 > 100 µM
> 100 µM: HCT-15
